This experiment relates to AadA37. The experiment is described as follows: coupled continuous spectrophotometric assay of pyrophosphate release. The experiment is classed as biochemical, Morganella morganii. The conditions noted are these: 5 mM ATP, 10 mM MgCl2, 50 mM HEPES pH 7.5, 37 °C.

As a reminder, the Km is the substrate concentration at which the rate is half of its maximum. In the case of `CN[C@@H]1[C@H](O)[C@H](NC)[C@H]2O[C@@]3(O)C(=O)C[C@@H](C)O[C@H]3O[C@@H]2[C@H]1O` [Spectinomycin], the Km is 8.17 µM.

For the molecule `CN[C@@H]1[C@H](O[C@H]2[C@H](O[C@H]3[C@H](O)[C@@H](O)[C@H](N=C(N)N)[C@@H](O)[C@@H]3N=C(N)N)O[C@@H](C)[C@]2(O)C=O)O[C@@H](CO)[C@H](O)[C@H]1O` [Streptomycin], the Michaelis-Menten constant (Km) came to 2.67 µM.
